Measured values taken from patent US4205163A, “Tylosin derivatives” (Sanraku-Ocean Co., Ltd., priority 1977, dated 1980).
≈ marks a conversion by molar mass, not a printed value. Where two headings read alike, the source gives them in different places.

Key:
[1] = system: Bacillus cereus ATCC 9634; test: antimicrobial activity, broth dilution method; assay type: cell-based; details: Bacillus cereus
In short: (§1)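 The S. aureus and S. pyogenes strains are multidrug-resistant clinical isolates, and both are tylosin-resistant. Susceptibility was determined by the broth dilution technique.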

[2] = system: Sarcina lutea ATCC 9341; test: antimicrobial activity, broth dilution method; assay type: cell-based; details: Micrococcus luteus, ATCC9341, Sarcina lutea ATCC 9341, read-out: minimum inhibitory concentration (MIC)
In short: as §1

[3] = system: Staphylococcus aureus FDA-209P; test: antimicrobial activity, broth dilution method; assay type: cell-based; details: Staphylococcus aureus, FDA209P, read-out: minimum inhibitory concentration (MIC)
In short: (§2)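 Broth dilution MICs were measured against pathogenic bacteria, including clinically isolated drug-resistant strains. Staphylococcus aureus MS-8710 is resistant to tylosin, penicillin, tetracycline, erythromycin and leucomycin, and Streptococcus pyogenes to tylosin, erythromycin, oleandomycin and leucomycin.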

[4] = system: Staphylococcus aureus MS-8710; test: antimicrobial activity, broth dilution method; assay type: cell-based; details: Staphylococcus aureus
In short: as §1

[5] = system: Staphylococcus aureus MS-9931; test: antimicrobial activity, broth dilution method; assay type: cell-based
In short: as §1

[6] = system: Staphylococcus aureus MS-9937; test: antimicrobial activity, broth dilution method; assay type: cell-based
In short: as §1

[7] = system: Staphylococcus aureus SMITH; test: antimicrobial activity, broth dilution method; assay type: cell-based; details: Staphylococcus aureus, read-out: minimum inhibitory concentration (MIC)
In short: as §2

[8] = system: Streptococcus pyogenes MH-771; test: antimicrobial activity, broth dilution method; assay type: cell-based; details: Streptococcus pyogenes
In short: as §1

[9] = system: Mycoplasma gallisepticum KP-13; test: antibacterial activity against Mycoplasma; assay type: cell-based; details: Mycoplasmoides gallisepticum, KP13
From the text: (§3) Furthermore the new antibiotics according to the present invention also show antimicrobial activity on Mycoplasma. In particular, it is noteworthy that they have much higher antimicrobial activity than tylosin on Mycoplasma that is resistant to macrolide antibiotics. Tab.
(§4) **Medium (Eiken PPLO Medium)

[10] = system: Mycoplasma gallisepticum A-72; test: antibacterial activity against Mycoplasma; assay type: cell-based; details: Mycoplasmoides gallisepticum, A72; strain A-72, macrolide resistant; Eiken PPLO Medium
From the text: as §3
(§5) *Macrolide resistant strain
as §4

[11] = system: Mycoplasma gallisepticum E-11; test: antibacterial activity against Mycoplasma; assay type: cell-based; details: Mycoplasmoides gallisepticum, E11
From the text: as §3, §5, §4

[12] = system: Mycoplasma gallisepticum E-5; test: antibacterial activity against Mycoplasma; assay type: cell-based; details: Mycoplasmoides gallisepticum, E5
From the text: as §3, §5, §4

[13] = toxicity in chickens, mixed with feed for a month; assay type: in vivo; details: mixed with feed at 0.3%
From the text: 3-Acetyl-4"-D-(α-hydroxyphenylacetyl)tylosin, 4"-phenylthioacetyltylosin and 4"-benzenesulfonylacetyltylosin, selected as the representative compounds according to the present invention, were mixed with feed at a ratio of 0.3%, respectively and given to chickens for a month.

[14] = in vivo; details: mouse, po, 100 mg/kg
Experimental: The new antibiotics according to the present invention were each orally administered to mice at a dose of 100 mg/kg. Each blood level was then measured and compared with those of tylosin and 3-acetyltylosin.

[15] = ATCC9634, Bacillus cereus ATCC 9634, broth dilution, read-out: minimum inhibitory concentration (MIC)
[16] = Staphylococcus aureus FDA-209P, broth dilution
[17] = MS8710, Staphylococcus aureus MS-8710, drug-resistant clinical isolate, read-out: minimum inhibitory concentration (MIC)
[18] = MS9931, Staphylococcus aureus MS-9931, drug-resistant clinical isolate, read-out: minimum inhibitory concentration (MIC)
[19] = MS9937, Staphylococcus aureus MS-9937, drug-resistant clinical isolate, read-out: minimum inhibitory concentration (MIC)
[20] = Staphylococcus aureus SMITH, broth dilution
[21] = MH771, Streptococcus pyogenes MH-771, drug-resistant clinical isolate, read-out: minimum inhibitory concentration (MIC)
[22] = strain KP-13, Eiken PPLO Medium, read-out: MIC
[23] = strain E-11, macrolide resistant, Eiken PPLO Medium, read-out: MIC
[24] = strain E-5, macrolide resistant, Eiken PPLO Medium, read-out: MIC

SMILES	MIC [1, 15] [µg/mL]	MIC [2] [µg/mL]	MIC [3, 16] [µg/mL]	MIC [4, 17] [µg/mL]	MIC [5, 18] [µg/mL]	MIC [6, 19] [µg/mL]	MIC [7, 20] [µg/mL]	MIC [8, 21] [µg/mL]	MIC [9, 22] [µg/mL]	MIC [10] [µg/mL]	MIC [11, 23] [µg/mL]	MIC [12, 24] [µg/mL]	toxicity [13]	further results
CCC1OC(=O)CC(O)C(C)C(OC2OC(C)C(OC3CC(C)(O)C(OC(=O)CS(=O)(=O)c4ccccc4)C(C)O3)C(N(C)C)C2O)C(CC=O)CC(C)C(=O)C=CC(C)=CC1COC1OC(C)C(O)C(OC)C1OC (stereo not shown) [Compound 43, 4"-benzenesulfonylacetyltylosin]	0.78 (≈ 0.71 µM)	0.39 (≈ 0.355 µM)	0.78 (≈ 0.71 µM)	6.25 (≈ 5.69 µM)	6.25 (≈ 5.69 µM)	6.25 (≈ 5.69 µM)	0.78 (≈ 0.71 µM)	3.13 (≈ 2.85 µM)	0.019 (≈ 0.0173 µM)	0.039 (≈ 0.0355 µM)	0.078 (≈ 0.071 µM)	0.078 (≈ 0.071 µM)	No toxicity was observed	–
CC[C@H]1OC(=O)C[C@@H](O)[C@H](C)[C@@H](O[C@@H]2O[C@H](C)[C@@H](O[C@H]3C[C@@](C)(O)[C@@H](O)[C@H](C)O3)[C@H](N(C)C)[C@H]2O)[C@@H](CC=O)C[C@@H](C)C(=O)/C=C/C(C)=C/[C@@H]1CO[C@@H]1O[C@H](C)[C@@H](O)[C@@H](OC)[C@H]1OC [tylosin]	–	0.19 (≈ 0.207 µM)	–	–	–	–	–	–	–	2.5 (≈ 2.73 µM)	–	–	–	MIC ([1]; ATCC9634, read-out: minimum inhibitory concentration (MIC)): 0.78 µg/mL (≈ 0.851 µM); MIC [3]: 0.39 µg/mL (≈ 0.426 µM); MIC ([4]; MS8710, read-out: minimum inhibitory concentration (MIC)): > 200 µg/mL; MIC ([5]; Staphylococcus aureus, MS9931, read-out: minimum inhibitory concentration (MIC)): 200 µg/mL (≈ 218 µM); MIC ([6]; Staphylococcus aureus, MS9937, read-out: minimum inhibitory concentration (MIC)): 100 µg/mL (≈ 109 µM); MIC [7]: 0.39 µg/mL (≈ 0.426 µM); MIC ([8]; MH771, read-out: minimum inhibitory concentration (MIC)): > 200 µg/mL; MIC [9]: 0.019 µg/mL (≈ 0.0207 µM); MIC [11]: 2.5 µg/mL (≈ 2.73 µM); MIC [12]: 2.5 µg/mL (≈ 2.73 µM); Cmax [14]: ≤ 1000 ng/mL
CCC1OC(=O)CC(O)C(C)C(OC2OC(C)C(OC3CC(C)(O)C(OC(=O)CSc4ccccc4)C(C)O3)C(N(C)C)C2O)C(CC=O)CC(C)C(=O)C=CC(C)=CC1COC1OC(C)C(O)C(OC)C1OC (stereo not shown) [Compound 34, 4"-phenylthioacetyltylosin]	0.39 (≈ 0.366 µM)	0.19 (≈ 0.178 µM)	0.39 (≈ 0.366 µM)	6.25 (≈ 5.86 µM)	12.5 (≈ 11.7 µM)	12.5 (≈ 11.7 µM)	0.39 (≈ 0.366 µM)	6.25 (≈ 5.86 µM)	0.019 (≈ 0.0178 µM)	0.078 (≈ 0.0731 µM)	0.078 (≈ 0.0731 µM)	0.078 (≈ 0.0731 µM)	No toxicity was observed	–
CCC1OC(=O)CC(OC(C)=O)C(C)C(OC2OC(C)C(OC3CC(C)(O)C(OC(=O)C(O)c4ccccc4)C(C)O3)C(N(C)C)C2O)C(CC=O)CC(C)C(=O)C=CC(C)=CC1COC1OC(C)C(O)C(OC)C1OC [Compound 17, 3-acetyl-4"-D-(α-hydroxyphenylacetyl)tylosin]	–	–	–	–	12.5 (≈ 11.4 µM)	12.5 (≈ 11.4 µM)	–	6.25 (≈ 5.72 µM)	0.157 (≈ 0.144 µM)	0.313 (≈ 0.287 µM)	0.625 (≈ 0.572 µM)	0.625 (≈ 0.572 µM)	No toxicity was observed	concentration at 1 h [14]: 10000 ng/mL; concentration at 3 h [14]: 2000 ng/mL
